Paper PMC8154578, “Sustainable Drug Discovery of Multi-Target-Directed Ligands for Alzheimer’s Disease” (Journal of Medicinal Chemistry, 2021)

What was measured:
[1] = test system: TNF-α, IL-1β, iNOS and COX-2 mRNA in LPS-induced BV-2 cells; assay: Expression of proinflammatory cytokines and enzymes in LPS-induced BV-2 cells (real-time PCR); type: cell-based, murine; conditions: 0.1 μM for 24 h, then 100 ng/mL LPS for 24 h, compared to LPS
[2] = test system: RAW264.7 murine macrophage cell line; parameters: method as in PMID 29890972; conditions: 50 μM; cited from earlier work
[3] = test system: IL-1β release in LPS-activated BV-2 cells; assay: Secretion of IL-1β in activated BV-2 cells (ELISA); type: cell-based, murine; conditions: 0.1 μM for 24 h, then 100 ng/mL LPS for 24 h, compared to LPS-treated cells

| SMILES | COX-2 mRNA expression [1] | IL-1β mRNA expression [1] | TNF-α mRNA expression [1] | iNOS mRNA expression [1] | expression of TNF-α, iNOS, COX-2, NF-κB, IL-1β, and IL-6 [2] | release of IL-1β in the culture medium [3] |
| --- | --- | --- | --- | --- | --- | --- |
| CCCCCCCCCCCCCCCc1cccc(O)c1C(=O)O [Compound 1a, reference compound] | reduced | reduced | reduced only the expression of IL-1β and COX-2 | reduced only the expression of IL-1β and COX-2 | significantly reduce | – |
| COC(=O)c1c(CCCCCCCCNc2c3c(nc4cc(Cl)ccc24)CCCC3)cccc1OC [Compound 6, Methyl 2-(8-((6-Chloro-1,2,3,4-tetrahydroacridin-9-yl)amino)octyl)-6-methoxybenzoate] | significantly reduce | significantly reduce | significantly reduce | significantly reduce | – | significantly decrease |
| COC(=O)c1c(CCCCCCCCNc2c3c(nc4ccccc24)CCCC3)cccc1OC [Compound 5, Methyl 2-Methoxy-6-(8-((1,2,3,4-tetrahydroacridin-9-yl)amino)octyl)benzoate] | significantly downregulated | significantly downregulated | not TNF-α | significantly downregulated | – | significantly decrease |
